Experimental findings from ChEMBL document CHEMBL1765054 (J Med Chem, 2011) are described below.

What all share (format): ADME, organism-based
A short description of series [1]: AUC in C57BL/6 mouse at 10 mg/kg, po. Also on record: dose 10 mg/kg, route oral. The settings on record: plasma.
The subject of series [2] is Mus musculus. In words: Bioavailability in C57BL/6 mouse at 10 mg/kg. Particulars: in vivo.
A short description of series [3]: Cmax in C57BL/6 mouse at 10 mg/kg, po. The arrangement: dose 10 mg/kg, route oral. Particulars: in vivo.
A short description of series [4]: Cmax in C57BL/6 mouse at 1 mg/kg, iv. The arrangement: dose 1 mg/kg, route intravenous. The settings on record: in vivo.
A short description of series [5]: Tmax in C57BL/6 mouse at 10 mg/kg, po. Also on record: dose 10 mg/kg, route oral. The settings on record: in vivo.
Series [6] can be described thus: Volume of distribution at steady state in C57BL/6 mouse at 1 mg/kg, iv. The arrangement: dose 1 mg/kg, route intravenous. The settings on record: in vivo, read-out: Vdss.

Turning to `Nc1ccc(-c2ccc3ncc4ccc(=O)n(-c5cccc(C(F)(F)F)c5)c4c3c2)cn1`, the AUC in series [1] is 4310 ng·h/mL. The compound also registered a F in series [2] of 51%. Moreover, the Cmax came out at 3970 ng/mL in series [3] and 1540 ng/mL in series [4].
Regarding `O=c1ccc2cnc3ccc(-c4cn[nH]c4)cc3c2n1-c1ccc(F)c(C(F)(F)F)c1`, the AUC in series [1] turned out to be 755 ng·h/mL. For the same compound, the Tmax in series [5] was determined as 30 min. The same compound displayed a F in series [2] of 19.2%. Moreover, in series [6], the Vd is 2.42 L/kg. The compound also yielded a Cmax in series [3] of 430 ng/mL.
`O=c1ccc2cnc3ccc(-c4cnc5[nH]ccc5c4)cc3c2n1-c1ccc(F)c(C(F)(F)F)c1` gave an AUC in series [1] of 352 ng·h/mL. Besides, the Tmax in series [5] was found to be 60 min. The compound further displayed a F in series [2] of 4.2%. Moreover, in series [6], the Vd worked out at 1.3 L/kg. For the same compound, the Cmax in series [3] was 98 ng/mL; in series [4], 1640 ng/mL.
On to `Cc1cc(-n2c(=O)ccc3cnc4ccc(-c5cn[nH]c5)cc4c32)ccc1F`, for which the area under the curve (AUC) in series [1] amounted to 2410 ng·h/mL. The Tmax in series [5] came out at 30 min. Further, in series [2], the F worked out at 21.6%. Besides, the Vd in series [6] was 1.16 L/kg. Also, the values for the Cmax in series [3] and in series [4] were 853 ng/mL and 1040 ng/mL, respectively.
`Cc1cc(-n2c(=O)ccc3cnc4ccc(-c5cnn(C)c5)cc4c32)ccc1F`: the exposure (AUC) in series [1] is 2070 ng·h/mL. Also, in series [5], the Tmax was found to be 30 min. The compound also yielded a F in series [2] of 28%. Further, in series [6], the Vd turned out to be 1.08 L/kg. Also, in series [3], the Cmax amounted to 1040 ng/mL.

What is called AUC is the area under the concentration-time curve, a measure of exposure. The Cmax is the maximum level reached in the sampled fluid or tissue. The Tmax is the time at which the peak concentration occurs.
